Tests used:
[1] = Modification of L-lysine by lipid peroxides (protein carbonyl, OLAARPs); details: for OLAARPs Formation: (%) / Protein carbonyl Formation: (%): L-lysine, versus no saccharide; for Formed OLAARPs / Formed Protein carbonyl: 37° C., 24 hours
Protocol: (§1) In this experiment, saccharide solutions were prepared to give an equal total saccharide molar concentration in each solution.
(§2) As a negative control, PBS was used.
(§3) To five milliliters of either of the above saccharide solutions for testing or the negative control was added 10 mg of calf serum albumin (BSA) or L-lysine, followed by dissolving. To each of the resulting solutions was added 25 μg of 2,4-decadienal or malondialdehyde (MDA) as a lipid peroxide, followed by reaction at 37° C. for 24 hours. After completion of the reaction, protein carbonyl and reaction products of oxidized lipids/aminoacids (OLAARPs) formed as aldehyde adducts were quantified on the calorimetric method. […] The formation levels of protein carbonyl and OLAARPs were determined based on the absorbances obtained in this experiment, in terms of the molar absorbance coefficient for each molecule as disclosed in Biochim. Biophys. Acta, No. 1,258, pp. 319-327 (1985).
To each of the resulting mixtures was added 600 μl of 30% trichloroacetic acid, and the mixture was allowed to stand at 0° C. for one hour and centrifuged at 10,000 rpm for 15 min to obtain a precipitate, followed by washing the resulting precipitate four times with two milliliters of ethanol/ethylacetate (1:1), respectively, adding 1.5 ml of 6M-guanidine hydrochloride/20 mM-NaPi/TFA (pH 2.3) to the resultant, allowing the mixture to stand at 37° C. for 30 min, and measuring the absorbance of the resulting mixture at a wavelength of 580 nm, ε=35,000 M^−1 cm^−1. […] To any one of the resulting mixtures was added two milliliters of a 12.5 mM DNPH/2.5 N-hydrochloride solution, and the resulting mixture was allowed to stand at 45° C. for 30 min, followed by measuring the absorbance of the resulting mixture at a wavelength of 580 nm, E=35,000 M^−1 cm^−1.

[2] = test system: calf serum albumin (BSA); assay: Modification of BSA by lipid peroxides (protein carbonyl, OLAARPs); format: biochemical; details: for OLAARPs Formation: (%) / Protein carbonyl Formation: (%): BSA, versus no saccharide; for Formed OLAARPs / Formed Protein carbonyl: 37° C., 24 hours
Protocol: as §1, §2
as §3, with “Biophys.” for “Biophys. Acta, No. 1,258, pp. 319-327 (1985).”
To each of the resulting mixtures was added 600 μl of 30% trichloroacetic acid, and the mixture was allowed to stand at 0° C. for one hour and centrifuged at 10,000 rpm for 15 min to obtain a precipitate, followed by washing the resulting precipitate four times with two milliliters of ethanol/ethylacetate (1:1), respectively, adding 1.5 ml of 6M-guanidine hydrochloride/20 mM-NaPi/TFA (pH 2.3) to the resultant, allowing the mixture to stand at 37° C. for 30 min, and measuring the absorbance of the resulting mixture at a wavelength of 580 nm, ε=35,000 M^−1 cm^−1.

[3] = Preservation of powdery vitamin E preparations at 60° C., GC; format: physicochemical; details: for Amount of vitamin E: per one gram of vitamin E preparation
Protocol: Vitamin E (α-tocopherol) commercialized by Wako Pure Chemical Industries Ltd., Tokyo, Japan, was dissolved in ethanol (a special grade reagent, commercialized by Katayama Chemical Industries Co., Ltd., Osaka, Japan) to make into an ethanol solution with a vitamin E content of 10%. Ten grams of the powdery anhydrous cyclotetrasaccharide, prepared in Example 3, were placed in a glass mortar and then a small amount of […] was added to the cyclotetrasaccharide. Using a glass rod, the mixture was repeatedly mixed with additional ethanol or acetic acid until the mixture could not keep its powdery form. Thus, a vitamin E preparation was obtained. As controls, vitamin E preparations were prepared by using “ISOELITE P™”, a powdery branched cyclodextrin commercialized by Ensuiko Sugar Refining Co., Ltd., Tokyo, Japan, a powdery anhydrous crystalline α,α-trehalose prepared according to the method disclosed in Japanese Patent Kokai No. 213,283/95, “PINEFIBER™”, a powdery dextrin product commercialized by Matsutani Chemical Industries Co., Ltd., Hyogo, Japan, or a soluble starch commercialized by Katayama Chemical Industries Co., Ltd., Osaka, Japan, except for using cyclotetrasaccharide by the same procedure. Successively, each powdery vitamin E preparation was dried under a reduced pressure by keeping the preparation at ambient temperature for five hours in a desiccators containing (P2O5) to evaporate ethanol. About 0.5 gram each of the five powdery vitamin E preparations containing any one of those saccharides was weighted and placed in 20 ml-glass vials and sealed. […] The amount of vitamin E in each sample was determined by: adding 10 ml of ethanol to each of the vials containing the test samples; extracting vitamin E by shaking the resulting suspensions; centrifuging the suspensions at 10,000 rpm for 10 minutes; and measuring the amount of vitamin E in the resulting supernatants by gas-chromatography (GC). GC was carried out using “GC-14A”, a GL apparatus produced by Shimadzu Corporation, Kyoto, Japan, installed with “DB-1”, a column (internal diameter: 0.25 mm, length: 30 m) commercialized by Agilent Technologies, USA (former name; J & W Scientific, USA). The amount of vitamin E (mg) per one gram of a vitamin E preparation and the residual vitamin E (%) was calculated and expressed with a relative value, when the amount of vitamin E in each test sample just after its preparation was regarded as 100%, as shown in Table 11.

[4] = 2,4-decadienal, listed as cyclotetrasaccharide
[5] = MDA, listed as cyclotetrasaccharide
[6] = added lipid peroxide 2,4-decadienal
[7] = added lipid peroxide malondialdehyde (MDA)

| SMILES | OLAARPs Formation: (%) ([1]; 2,4-decadienal) | Protein carbonyl Formation: (%) ([1]; 2,4-decadienal) | OLAARPs Formation: (%) ([1]; MDA) | Protein carbonyl Formation: (%) ([1]; MDA) | Formed OLAARPs [1, 6] [μmol/g-L-lysine] | Formed Protein carbonyl [1, 6] [μmol/g-L-lysine] | Formed OLAARPs [1, 7] [μmol/g-L-lysine] | Formed Protein carbonyl [1, 7] [μmol/g-L-lysine] | OLAARPs Formation: (%) ([2]; 2,4-decadienal) | Protein carbonyl Formation: (%) ([2]; 2,4-decadienal) | OLAARPs Formation: (%) ([2]; MDA) | Protein carbonyl Formation: (%) ([2]; MDA) | Formed OLAARPs [2, 6] [μmol/g-BSA] | Formed Protein carbonyl [2, 6] [μmol/g-BSA] | Formed OLAARPs [2, 7] [μmol/g-BSA] | Formed Protein carbonyl [2, 7] [μmol/g-BSA] | Residual vitamin E (%) ([3]; 0 days (regarded as 100%)) | Residual vitamin E (%) ([3]; 1 day at 60° C.) | Residual vitamin E (%) ([3]; 3 days at 60° C.) | Residual vitamin E (%) ([3]; 7 days at 60° C.) | also measured |
| --- | --- | --- | --- | --- | --- | --- | --- | --- | --- | --- | --- | --- | --- | --- | --- | --- | --- | --- | --- | --- | --- |
| OCC1OC2OCC3O[C@H](O[C@H]4C(O)C(CO)OC(OCC5O[C@H](O[C@@H](C1O)C2O)C(O)C(O)[C@@H]5O)C4O)C(O)C(O)[C@@H]3O (stereo partly drawn) [Cyclotetrasaccharide, cyclo{→6}-α-D-glucopyranosyl-(1→3)-α-D-glucopyranosyl-(1→6)-α-D-glucopyranosyl-(1→3)-α-D-glucopyranosyl-(1→}] | (67) % | (48) % | (39) % | (66) % | 5.44 | 6.42 | 3.39 | 3.93 | (69) % | (45) % | (80) % | (45) % | 2.92 | 6.34 | 4.68 | 1.09 | (100) % | (98) % | (95) % | (90) % | OLAARPs Formation: (%) [1, 4]: about 67%; Protein carbonyl Formation: (%) [1, 4]: about 48%; OLAARPs Formation: (%) [1, 5]: about 39%; Protein carbonyl Formation: (%) [1, 5]: about 66%; OLAARPs Formation: (%) [2, 4]: about 69%; Protein carbonyl Formation: (%) [2, 4]: about 45%; OLAARPs Formation: (%) [2, 5]: about 80%; Protein carbonyl Formation: (%) [2, 5]: about 45%; Residual vitamin E (%) ([3]; 14 days at 60° C.): (61) %; Amount of vitamin E ([3]; 0 days at 60° C.): 75.9 mg; Amount of vitamin E ([3]; 1 day at 60° C.): 74.4 mg; Amount of vitamin E ([3]; 3 days at 60° C.): 72.0 mg; Amount of vitamin E ([3]; 7 days at 60° C.): 68.5 mg; Amount of vitamin E ([3]; 14 days at 60° C.): 46.3 mg |
| OC[C@H]1O[C@H](O[C@H]2O[C@H](CO)[C@@H](O)[C@H](O)[C@H]2O)[C@H](O)[C@@H](O)[C@@H]1O [α, α-Trehalose, α, α-trehalose, reference compound] | (70) % | (55) % | (38) % | (67) % | 5.72 | 7.47 | 3.24 | 3.99 | (63) % | (58) % | (56) % | (60) % | 2.67 | 8.26 | 3.24 | 1.45 | (100) % | (99) % | (85) % | (73) % | Residual vitamin E (%) ([3]; 14 days at 60° C.): (41) %; Amount of vitamin E ([3]; 0 days at 60° C.): 36.7 mg; Amount of vitamin E ([3]; 1 day at 60° C.): 36.2 mg; Amount of vitamin E ([3]; 3 days at 60° C.): 31.0 mg; Amount of vitamin E ([3]; 7 days at 60° C.): 26.6 mg; Amount of vitamin E ([3]; 14 days at 60° C.): 15.1 mg |

Reference: patent publication US20050267067A1, “Radical reaction inhibitors, method for inhibition of radical reactions, and use thereof” (priority 2002, published 2005)
